Laboratory results as given in ChEMBL document CHEMBL1134659, “Amino acid/spermine conjugates: polyamine amides as potent spermidine uptake inhibitors” (J Med Chem, 2001).
pEC50, pKi: −log10 of the molar value.

Assays:
Assay type in all cases: functional, cell-based
[1] = system: MDA-MB-231; assay: In vitro inhibition of [3H]spermidine uptake in MDA-MB-231 (Human breast cancer) cells.
[2] = system: MDA-MB-231; assay: In vitro inhibition of MDA-MB-231 (Human breast caner) cell growth.
[3] = system: MDA-MB-231; assay: Inhibition of [3H]spermidine transport into MDA-MB-231 (human breast cancer) cells.

| pEC50 [2] | Structure (SMILES) | pKi [1] | pKi [3] |
| --- | --- | --- | --- |
| < 3.52 | NCCCNCCCCNCCCNC(=O)[C@@H](N)CCC(N)=O | 6.75 |  |
| < 4.00 | NCCCNCCCCNCCCNC(=O)[C@@H](N)Cc1ccccc1 | 6.35 |  |
| < 3.52 | CC(C)C[C@H](N)C(=O)NCCCNCCCCNCCCN | 7.34 |  |
| 4.03 | NCCCNCCCCNCCCNC(=O)[C@@H]1CCCN1 | 7.42 |  |
| < 3.52 | C[C@H](N)C(=O)NCCCNCCCCNCCCN | 6.84 |  |
|  | NCCCNCCCCNCCCNC(=O)C12CC3CC(CC(C3)C1)C2 |  | 6.17 |
| 4.80 | CC(C)[C@H](N)C(=O)NCCCNCCCCNCCCN | 7.08 |  |
| 4.96 | CC(C)(C)[C@H](N)C(=O)NCCCNCCCCNCCCN | 6.90 |  |
| 5.10 | CC(C)(N)C(=O)NCCCNCCCCNCCCN | 6.72 |  |
| 4.59 | NCCCNCCCCNCCCNC(=O)[C@@H](N)CO | 7.26 |  |
|  | NCCCNCCCCNCCCNC(=O)CC12CC3CC(CC(C3)C1)C2 |  | 6.59 |
| 5.52 | NCCCNCCCCNCCCNC(=O)[C@@H](N)CCCN | 7.33 |  |
|  | CC(C)(C)OC(=O)NCCCNCCCCNCCCN |  | 7.07 |
| 3.69 | NCCCNCCCCNCCCNC(=O)[C@H](N)Cc1c[nH]c2ccccc12 | 7.20 |  |
|  | CC(=O)NCCCNCCCNCCCN |  | < 6.00 |
|  | CCCCCC(=O)NCCCNCCCCNCCCN |  | 6.55 |

| pEC50 [2] | Structure (SMILES) | pKi [1] | pKi [3] |
| --- | --- | --- | --- |
| 4.82 | NCCCNCCCCNCCCNC(=O)[C@@H](N)Cc1c[nH]c2ccccc12 | 6.92 |  |
| 4.01 | NCCCNCCCCNCCCNC(=O)[C@@H](N)CC(N)=O | 7.02 |  |
| 5.05 | CC(C)[C@@H](N)C(=O)NCCCNCCCCNCCCN | 7.24 |  |
| 4.02 | NCCCNCCCCNCCCNC(=O)[C@@H](N)Cc1ccc(O)cc1 | 6.94 |  |
| 5.10 | NCCCNCCCCNCCCNC(=O)[C@@H](N)CC1CCCCC1 | 6.71 |  |
| 5.22 | C[C@H](O)[C@H](N)C(=O)NCCCNCCCCNCCCN | 6.67 |  |
| < 4.00 | NCCCNCCCCNCCCNC(=O)CN | 7.06 |  |
| 5.05 | CCC(C)[C@H](N)C(=O)NCCCNCCCCNCCCN (stereo partly drawn) | 6.82 |  |
|  | NCCCNCCCCNCCCNC(=O)Cc1cccc2ccccc12 |  | 6.75 |
| < 3.52 | CSCC[C@H](N)C(=O)NCCCNCCCCNCCCN | 7.19 |  |
| < 3.52 | NCCCNCCCCNCCCNC(=O)CCN | 7.19 |  |
|  | N=C(N)NCCCCCCC(=O)NC(O)C(=O)NCCCCNCCCN (stereo not drawn) |  | 7.09 |
|  | NCCCNCCCCNCCC(=O)NCCCCCNC(=O)[C@H](CC(N)=O)NC(=O)Cc1ccc(O)cc1O [JORO SPIDER TOXIN 3] |  | 6.72 |
|  | NCCCCN [PUTRESCINE] |  | 5.89 |
|  | NCCCCNCCCN [SPERMIDINE] |  | 6.95 |
|  | NCCCNCCCCNCCCN [SPERMINE] |  | 6.55 |
